Results: BindingDB's records for doi:10.7270/Q2C53J9J (University of Pittsburgh, 2010)

Target: T1, Glucose-6-phosphate 1-dehydrogenase (Leuconostoc mesenteroides, UniProt P11411)
T1 sequence (P11411 whole entry): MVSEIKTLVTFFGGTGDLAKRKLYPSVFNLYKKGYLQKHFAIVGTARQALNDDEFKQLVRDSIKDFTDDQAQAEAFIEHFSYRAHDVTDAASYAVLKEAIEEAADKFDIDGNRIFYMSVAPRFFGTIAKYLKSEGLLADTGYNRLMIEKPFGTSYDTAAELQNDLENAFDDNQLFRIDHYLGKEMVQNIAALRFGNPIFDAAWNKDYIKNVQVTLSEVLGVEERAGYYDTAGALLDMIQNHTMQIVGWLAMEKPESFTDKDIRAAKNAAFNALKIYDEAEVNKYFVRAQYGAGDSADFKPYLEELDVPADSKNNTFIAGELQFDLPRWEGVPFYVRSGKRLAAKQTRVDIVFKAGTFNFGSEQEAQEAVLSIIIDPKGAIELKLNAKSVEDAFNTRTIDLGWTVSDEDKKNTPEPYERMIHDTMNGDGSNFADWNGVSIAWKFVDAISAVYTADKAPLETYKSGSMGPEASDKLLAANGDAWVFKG
Experiment: Leuconostoc G6PDH inhibition potency, SAR follow-up, counter-screen for TbHK1 inhibitor project, biochemical, analogue series, IC50 (AID 2579)

**Q.** Which IC50 does the source give for `O=C(Cn1sc2ccccc2c1=O)Nc1ccccc1Br` here?
**A.** > 25 µM

**Q.** How did the IC50 turn out when `O=C(Cn1sc2ccccc2c1=O)Nc1ccc(F)cc1` [N-(4-fluorophenyl)-2-(3-oxo-1,2-benzothiazol-2-yl)acetamide] was run?
**A.** > 25 µM

**Q.** `COc1cccc(C(=O)Nc2cc(Cl)ccc2C(=O)O)c1` was tested. Which IC50 did it give?
**A.** > 25 µM

**Q.** How did the IC50 turn out when `O=C(Nc1ccccc1)c1cc(F)ccc1S` was run?
**A.** > 25 µM

**Q.** Which IC50 does the source give for `O=C(Nc1cc(Cl)ccc1C(=O)O)c1ccc(C(F)(F)F)cc1` [4-chloranyl-2-[[4-(trifluoromethyl)phenyl]carbonylamino]benzoic acid] here?
**A.** > 25 µM

**Q.** For `COc1ccc(C(=O)Nc2cc(Cl)ccc2[N+](=O)[O-])cc1` [KSC-6-266], which IC50 is on record?
**A.** > 25 µM

**Q.** `CC(C(=O)Nc1ccccc1)n1sc2ccccc2c1=O` (centres undefined) [2-(3-keto-1,2-benzothiazol-2-yl)-N-phenyl-propionamide (9)] was tested. Which IC50 did it give?
**A.** > 25 µM

**Q.** How did the IC50 turn out when `O=c1c2ccc(Br)cc2sn1-c1ccccc1` was run?
**A.** > 25 µM

**Q.** For `O=c1c2ccc(F)cc2sn1Cc1ccccc1` [6-fluoro-2-(phenylmethyl)-1,2-benzothiazol-3-one], which IC50 is on record?
**A.** > 25 µM

**Q.** `CCOC(=O)Cn1sc2ccccc2c1=O` [KUC104555N] was tested. Which IC50 did it give?
**A.** > 25 µM

**Q.** How did the IC50 turn out when `CCOC(=O)c1ccncc1NC(=O)c1ccc(OC)cc1` [3-[[(4-methoxyphenyl)-oxomethyl]amino]-4-pyridinecarboxylic acid ethyl ester] was run?
**A.** > 25 µM

**Q.** Which IC50 does the source give for `COc1ccc(C(=O)Nc2ccccc2-c2nn[nH]n2)cc1` [4-methoxy-N-[2-(2H-1,2,3,4-tetrazol-5-yl)phenyl]benzamide] here?
**A.** > 25 µM

**Q.** `Cn1c2ccccc2c(=O)n1-c1ccccc1` [1-methyl-2-phenyl-3-indazolone] was tested. Which IC50 did it give?
**A.** > 25 µM

**Q.** `O=C(Cn1sc2ccccc2c1=O)Nc1cccc(Br)c1` [N-(3-bromophenyl)-2-(3-oxo-1,2-benzothiazol-2-yl)acetamide] was tested. Which IC50 did it give?
**A.** > 25 µM

**Q.** How did the IC50 turn out when `COc1ccc(-n2sc3ccccc3c2=O)cc1` [KSC-6-098] was run?
**A.** > 25 µM

**Q.** For `O=C(Cn1sc2ccccc2c1=O)Nc1ccccc1F` [KSC-09-149A], which IC50 is on record?
**A.** > 25 µM

**Q.** How did the IC50 turn out when `N#Cc1ccccc1NC(=O)Cn1sc2ccccc2c1=O` was run?
**A.** > 25 µM

**Q.** With `COC(=O)c1ccc(Cl)cc1NC(=O)c1ccc(OC)cc1` [KUC105792N] as the compound, how does the IC50 read?
**A.** > 25 µM

**Q.** `O=c1c2ccccc2sn1-c1ccc(Cl)cc1Cl` [KUC103882N] was tested. Which IC50 did it give?
**A.** > 25 µM

**Q.** For `O=C(Cn1sc2ccccc2c1=O)NCc1ccccc1`, which IC50 is on record?
**A.** > 25 µM

**Q.** With `COc1ccc(C(=O)NCC(=O)O)cc1` as the compound, how does the IC50 read?
**A.** > 25 µM

**Q.** Which IC50 does the source give for `COc1ccc(Nc2cc(Cl)ccc2C(=O)O)cc1` [4-chloro-2-(4-methoxyanilino)benzoic acid] here?
**A.** > 25 µM

**Q.** With `O=C(NCc1ccccc1)n1sc2ccccc2c1=O` [N-benzyl-3-oxo-1,2-benzothiazole-2-carboxamide] as the compound, how does the IC50 read?
**A.** > 25 µM

**Q.** For `Cc1ccc(-n2sc3cc(F)ccc3c2=O)c(C)c1` [2-(2,4-dimethylphenyl)-6-fluoranyl-1,2-benzothiazol-3-one], which IC50 is on record?
**A.** > 25 µM

**Q.** Which IC50 does the source give for `O=C(Nc1cc(Cl)ccc1C(=O)O)c1ccc2ccccc2c1` [4-chloro-2-[[2-naphthalenyl(oxo)methyl]amino]benzoic acid] here?
**A.** > 25 µM

**Q.** With `O=c1c2cc(F)c(F)cc2sn1-c1ccccc1` [KUC104549N] as the compound, how does the IC50 read?
**A.** > 25 µM

**Q.** How did the IC50 turn out when `O=C(Nc1cc(Cl)ccc1C(=O)O)c1ccc(Cl)cc1` [4-chloranyl-2-[(4-chlorophenyl)carbonylamino]benzoic acid] was run?
**A.** > 25 µM

**Q.** How did the IC50 turn out when `O=c1c2ccccc2sn1-c1cccc(Cl)c1` [2-(3-chlorophenyl)-1,2-benzothiazol-3-one] was run?
**A.** > 25 µM

**Q.** `O=C1CCN(C(=O)Nc2cc(Cl)ccc2C(=O)O)CC1` [4-chloro-2-[[oxo-(4-oxo-1-piperidinyl)methyl]amino]benzoic acid] was tested. Which IC50 did it give?
**A.** > 25 µM

**Q.** How did the IC50 turn out when `Cc1ccc(C(=O)Nc2cc(Cl)ccc2C(=O)O)c(C)c1` [4-chloro-2-[[(2,4-dimethylphenyl)-oxomethyl]amino]benzoic acid] was run?
**A.** > 25 µM

**Q.** `Cc1ccccc1NC(=O)Cn1sc2ccccc2c1=O` was tested. Which IC50 did it give?
**A.** > 25 µM

**Q.** `O=C(Nc1cc(Cl)ccc1C(=O)O)c1ccsc1` [KUC105926N] was tested. Which IC50 did it give?
**A.** > 25 µM

**Q.** `COc1ccc(C(=O)Nc2cc(Cl)ccc2S(N)(=O)=O)cc1` was tested. Which IC50 did it give?
**A.** > 25 µM

**Q.** `COc1ccccc1C(=O)Nc1cc(Cl)ccc1C(=O)O` was tested. Which IC50 did it give?
**A.** > 25 µM
